Source: article PMC8131363 (Scientific Reports, 2021)
pEC50: −log10 of the molar value. Read-outs that look alike come from different tables or passages of the source.

Key:
cCaSR [1] = target: T1, cCaSR (Felis catus, UniProt C7FF08)
T1 sequence (C7FF08 1-1081): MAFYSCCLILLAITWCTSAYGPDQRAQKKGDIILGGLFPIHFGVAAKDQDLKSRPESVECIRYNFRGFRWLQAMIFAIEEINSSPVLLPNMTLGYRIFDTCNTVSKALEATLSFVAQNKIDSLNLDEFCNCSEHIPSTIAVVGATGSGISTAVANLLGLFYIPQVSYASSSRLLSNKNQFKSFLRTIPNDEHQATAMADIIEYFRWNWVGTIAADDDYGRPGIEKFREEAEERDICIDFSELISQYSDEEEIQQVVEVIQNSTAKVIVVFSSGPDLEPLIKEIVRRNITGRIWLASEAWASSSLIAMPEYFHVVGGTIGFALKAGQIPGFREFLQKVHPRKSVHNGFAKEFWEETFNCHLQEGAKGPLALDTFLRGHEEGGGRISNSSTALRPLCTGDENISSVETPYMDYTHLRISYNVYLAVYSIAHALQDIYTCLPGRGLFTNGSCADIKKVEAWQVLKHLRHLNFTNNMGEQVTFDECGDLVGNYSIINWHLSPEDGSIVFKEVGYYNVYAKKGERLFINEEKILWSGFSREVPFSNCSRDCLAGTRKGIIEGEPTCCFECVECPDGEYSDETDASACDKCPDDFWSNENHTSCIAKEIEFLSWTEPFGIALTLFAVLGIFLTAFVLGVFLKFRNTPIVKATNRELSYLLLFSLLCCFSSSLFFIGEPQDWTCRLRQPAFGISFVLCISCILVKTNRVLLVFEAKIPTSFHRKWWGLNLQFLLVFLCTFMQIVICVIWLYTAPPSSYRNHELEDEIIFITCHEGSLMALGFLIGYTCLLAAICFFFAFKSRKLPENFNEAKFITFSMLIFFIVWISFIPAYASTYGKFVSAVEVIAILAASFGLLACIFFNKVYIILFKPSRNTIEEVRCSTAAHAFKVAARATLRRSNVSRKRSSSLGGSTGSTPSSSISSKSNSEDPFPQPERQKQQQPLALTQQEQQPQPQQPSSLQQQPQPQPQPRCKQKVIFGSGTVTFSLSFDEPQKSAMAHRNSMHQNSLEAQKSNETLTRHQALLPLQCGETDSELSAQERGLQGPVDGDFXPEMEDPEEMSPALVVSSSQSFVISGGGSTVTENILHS

cCaSR [2] = target: T1, cCaSR; assay: cCaSR PAM luminescence assay, double injection with 0.5 mM CaCl2, HEK293/T-REx/natClytin-cCaSR
[3] = Supplementary Table I, agonist assay, dash = no activity
[4] = Supplementary Table I, PAM assay, dash = no activity
[5] = read-out: EC50 PAM, Supplementary Table I, positive allosteric modulator, presence of Ca2+

| Compound | EC50 Ago (M) (cCaSR [1]; [3]) | EC50 PAM (M) (cCaSR [2]; [4]) | further results |
| --- | --- | --- | --- |
| CC(C)C1NC(C(=O)O)Cc2c1[nH]c1ccccc21 (stereo not drawn) [1-isopropyl-2,3,4,9-tetrahydro-1H-pyrido[3,4-b]indole-3-carboxylic acid] | - | - |  |
| N[C@]1(C(=O)O)C[C@H](C(=O)O)C1 [1s,3s-1-aminocyclobutane-1,3-dicarboxylic acid] |  | - |  |
| NC(CCCC(N)C(=O)O)C(=O)O (stereo not drawn) [2,6-Diaminopimelic acid] | - | - |  |
| NC(CCCCCCCCCC(=O)O)C(=O)O (stereo not drawn) [2-aminododecanedioic acid] | - | - |  |
| COc1c(C)cc(C(=O)CC#N)cc1C [3,5-Dimethyl-4-methoxybenzoylacetonitrile] | - | - |  |
| CO[C@H]1[C@H](O)[C@@H](CO)OC(O)[C@@H]1O (stereo partly drawn) [3-O-Methyl-D-glucopyranose] | - | - |  |
| O=C(O)c1cc2c(cn1)[nH]c1ccccc12 [9H-pyrido[3,4-b]indole-3-carboxylic acid] | - | - |  |
| CC(C)[C@H](N)P(=O)(O)O [(1R)-(+)-(1-Amino-2-methylpropyl)phosphonic acid] |  |  | EC50 Ago (M) (cCaSR [1]): -; EC50 PAM (M) (cCaSR [2]): - |
| C[C@](N)(CC(=O)O)C(=O)O [(S)-a-Methylaspartic acid, (S)-α-Methylaspartic acid] | - | - |  |
| Cc1ccc(C(C)(O)c2nc3ccccc3s2)c(C)c1 (stereo not drawn) [AC-265347, reference compound] | - |  |  |
| O.O.[Ba+2].[Cl-].[Cl-] [Ba^2+, Barium chloride dihydrate] |  |  | EC50 PAM (M) (cCaSR [2]): - |
| [Ba+2].[Cl-].[Cl-] [Ba^2+, Barium chloride dihydrate] |  |  | pEC50 (cCaSR [1]): 2.93; pEC50 (cCaSR [1]; read-out: EC50 Ago): 2.93; pEC50 (cCaSR [1]; read-out: cCaSR activity): 2.00 to 3.00 |
| NCCCCCN [Cadaverine] | - | - |  |
| C[C@@H](N[C@H]1CCCC[C@@H]1NC(=O)c1ccc(Cl)cc1)c1cccc2ccccc12 [Calhex 231, reference compound] | - | - |  |
| C[C@@H](NCc1cc2ccccc2[nH]1)c1cccc2ccccc12 [Calindol, reference compound] | - |  |  |
| O=C([O-])[O-].O=C([O-])[O-].O=C([O-])[O-].[Ce+3].[Ce+3] [Cerium(III) carbonate] | - | - |  |
| C[C@@H](NCCCc1cccc(C(F)(F)F)c1)c1cccc2ccccc12 [Cinacalcet, reference compound] | - |  | pEC50 (cCaSR [2]): 6.13 |
| N[C@@H](CSSC[C@H](N)C(=O)O)C(=O)O [Cystine (disufide)] | - | - |  |
| OC[C@H]1OC(O)[C@H](O)[C@@H](O)[C@@H]1O (stereo partly drawn) [D-( +)-Glucose, D-(+)-Glucose] | - | - |  |
| NC(N)=NCCC[C@@H](N)C(=O)O [D-Arginine] | - | - |  |
| N[C@H](CC(=O)O)C(=O)O [D-Aspartic Acid] | - | - |  |
| N[C@H](CCC(=O)O)C(=O)O [D-Glutamic acid] | - | - |  |
| NCCCC[C@@H](N)C(=O)O [D-Lysine] | - | - |  |
| O=P(O)(O)C(Cl)(Cl)P(=O)(O)O [Dichloromethylenediphosphonic acid] | - | - |  |

| Compound | EC50 Ago (M) (cCaSR [1]; [3]) | EC50 PAM (M) (cCaSR [2]; [4]) | further results |
| --- | --- | --- | --- |
| COc1cc(C(O)(c2nc3ccccc3s2)C(F)(F)F)c(OC)cc1N (stereo not drawn) [Enamine Screening - Z317045236] | - |  | pEC50 (cCaSR [2]; [5]): 5.62 |
| CC(=O)N1C=Cc2ccccc2C1CC(=O)NC(C)c1cccc(Br)c1 (stereo not drawn) [Enamine Screening - Z336933272] | - |  | pEC50 (cCaSR [2]; [5]): 4.92 |
| COC(=O)C(NC1CCc2c(F)cccc21)c1cccc(C#N)c1 (stereo not drawn) [Enamine Screening - Z1362199910] | - |  | pEC50 (cCaSR [2]; [5]): 4.23 |
| CC(NC1CCc2c(F)cc(Br)cc21)c1ccncc1 (stereo not drawn) [Enamine Screening - Z1436888168] | - |  | pEC50 (cCaSR [2]; [5]): 4.34 |
| CC(NCC1Cc2ccccc2O1)c1ccc2ccccc2n1 (stereo not drawn) [Enamine Screening - Z1437387381] | - |  | pEC50 (cCaSR [2]; [5]): 5.05 |
| CC(NCC1CCCN(C)C1c1cccs1)c1cc(Cl)c(N)c(Cl)c1 (stereo not drawn) [Enamine Screening - Z1532507755] | - |  | pEC50 (cCaSR [2]; [5]): 5.06 |
| COc1ccc(C2C(CNC(C)c3ccncc3)CCN2C)cc1 (stereo not drawn) [Enamine Screening - Z1563602968] | - | - |  |
| OCC(CNC1CCCOc2cc(Cl)ccc21)Cc1ccccn1 (stereo not drawn) [Enamine Screening - Z1589915397] | - |  | pEC50 (cCaSR [2]; [5]): 3.91 |
| Cc1ccc(C(C)NC(C)c2cc3ccccc3[nH]2)cc1C (stereo not drawn) [Enamine Screening - Z1592615858] | - |  | pEC50 (cCaSR [2]; [5]): 5.72 |
| c1ccc(C2CCN(C3CCCc4ccccc43)C2)cc1 (stereo not drawn) [Enamine Screening - Z1627256025] | - |  | pEC50 (cCaSR [2]; [5]): 3.10 |
| COc1ccc(CCC(C)NC2CCOc3ccccc32)cc1O (stereo not drawn) [Enamine Screening - Z1857407854] | - |  | pEC50 (cCaSR [2]; [5]): 5.26 |
| [Gd+3] [Gd^3+, Gadolinium ion Gd^3+] |  | - | pEC50 (cCaSR [1]; agonist assay, stable inducible cCaSR line, > 0.01 M = maximal response not reached): 3.53; pEC50 (cCaSR [1]; read-out: EC50 Ago, Supplementary Table I, agonist assay, > 0.01 M = maximal response not reached): 3.53; pEC50 (cCaSR [1]; read-out: cCaSR activity, agonist assay, stable inducible cCaSR line, at least three wells): > 3.00 |
| NCC(=O)O [Glycine] | - | - |  |
| C1N2CN3CN1CN(C2)C3 [Hexamethylenetetramine] | - | - |  |
| O=C(O)[C@@H]1C[C@@H](O)CN1 [Hydroxyproline] | - | - |  |
| CN[C@H]1C[C@@H](N)[C@H](O)[C@@H](O[C@@H]2O[C@H](CO)[C@H](O)[C@@H]3OC4(O[C@H]23)O[C@H]([C@@H](N)CO)[C@H](O)[C@H](O)[C@H]4O)[C@@H]1O (stereo partly drawn) [Hygromycin B, reference compound] | - | - |  |
| NC[C@H]1O[C@H](O[C@H]2[C@H](O)[C@@H](O[C@H]3O[C@H](CO)[C@@H](O)[C@H](N)[C@H]3O)[C@H](N)C[C@@H]2N)[C@H](O)[C@@H](O)[C@@H]1O [Kanamycin solution, Kanamycin, reference compound] | - | - |  |
| NC[C@@H]1O[C@H](O[C@H]2[C@@H](O)[C@H](O[C@@H]3[C@@H](O)[C@H](N)C[C@H](N)[C@H]3O[C@H]3O[C@H](CN)[C@@H](O)[C@H](O)[C@H]3N)O[C@@H]2CO)[C@H](N)[C@@H](O)[C@@H]1O [Neomycin, reference compound] |  | - |  |
| C[C@@H](O)C(=O)SC[C@H](NC(=O)CC[C@H](N)C(=O)O)C(=O)NCC(=O)O [S-Lactoylglutathione] |  | - |  |
| NCCNCCNCCN [Triethylenetetramine] |  |  | EC50 Ago (M) (cCaSR [1]): - |
| NC(=O)CC[C@H](NC(=O)[C@H](CCC(=O)O)NC(=O)CC[C@H](N)C(=O)O)C(=O)O [γ-Glu-Glu-Gln] |  | - |  |
| N[C@@H](CCC(=O)N[C@@H](CCC(=O)O)C(=O)N[C@@H](CCC(=O)O)C(=O)O)C(=O)O [γ-Glu-Glu-Glu] |  | - |  |
| Poly-L-ornithine |  | - |  |
